Source: patent US20240209004A1, “BORIC ACID DERIVATIVE ACTING AS Beta-LACTAMASE INHIBITOR” (TUOJIE BIOTECH (SHANGHAI) CO., LTD., priority 2021, published 2024)
Like-named read-outs stand apart in the source and are kept apart here.

How the values were obtained:
[1] = tested on: cefepime-resistant Klebsiella pneumoniae expressing different types of β-lactamases; assay: microbe, parasite or virus in culture; format: cell-based; conditions: for MIC: Klebsiella pneumoniae; for MIC, Cefepime + compound (8 ug/ml): inhibitor at 8 ug/ml
Procedure: (§1) The biosafety cabinet was sterilized with ultraviolet light for 30 min. Glycerol tubes were taken out of a −80° C. freezer, and streaks were gently formed in the glycerol tubes using inoculating loops. Bacteria were inoculated onto MHIIA solid plates. The plates were incubated overnight in a 37° C. incubator.
(§2) 30 μL of compound stock solution was added to column 1 of a 96-well v-bottom plate, and DMSO was added to columns 2-10. Subsequently, 15 μL was transferred from column 1 to column 2 using a pipette and well mixed gently, and then 15 μL of solution was transferred from column 2 to column 3: the serial dilution process proceeded to column 10 (200×β-lactamase inhibitor working solutions were prepared). The antibiotic was diluted with a corresponding solvent to form a 1.6 mg/mL solution.

[2] = Single intravenous administration exposure, pharmacokinetics (Test Example 4); format: in vivo, ICR mice; conditions: ICR mice, single intravenous injection, plasma; for AUC(0-t) / AUC(0-inf) / Cmax / Tmax: mouse, in vivo; for AUC(0-t): read-out: AUC0-t; for AUC(0-inf): read-out: AUCinf; for Cmax: read-out: Cmax; for Tmax: read-out: Tmax
Procedure: The solutions were prepared on the day of administration and stored at 4° C.
Single intravenous injections were administered to ICR mice, which were grouped as follows. Blood was collected from the saphenous vein or the fundus venous plexus at 0.083 h, 0.25 h, 0.5 h, 1 h, 2 h, 4 h, 6 h and 12 h after administration (about 0.1 mL/time point). A biological analysis method was developed to determine plasma concentrations at different time points, and related pharmacokinetic parameters were calculated.

[3] = tested on: cefepime-resistant Acinetobacter baumannii; assay: MIC in combination with cefepime for drug-resistant bacteria (Test Example 2); format: cell-based; conditions: for concentration for achieving a bacteriostatic effect where the CPM MIC is fixed at 8 μg/mL: with CPM 8 μg/mL
Procedure: as §1
as §2, with “3;” for “3:”

[4] = tested on: cefepime-resistant Escherichia coli; assay: as above; format: cell-based; conditions: for MIC: Escherichia coli, with CPM 8 μg/mL
Procedure: as §1
as §2, with “3;” for “3:”

[5] = tested on: cefepime-resistant Klebsiella pneumoniae; assay: as above; format: cell-based; conditions: for MIC: Klebsiella pneumoniae, with CPM 8 μg/mL
Procedure: as §1
as §2, with “3;” for “3:”

[6] = tested on: cefepime-resistant Pseudomonas aeruginosa; assay: as above; format: cell-based
Procedure: as §1
as §2, with “3;” for “3:”

[7] = summary in words of Test Example 2

## O=C([O-])c1c2c(cc3c1O[B-](O)(O)[C@@H]1C[C@H]31)OCCO2.[Na+].[Na+] [Compound 1-1-Na]
[1]; ATCCBAA1705, read-out: MIC, single substance (1-1-Na, QPX7728, CPM), strain ATCC BAA-1705, KPC-2, TEM, SHV, Class A
  MIC: > 128 µg/mL
[1]; ATCCBAA1898, read-out: MIC, single substance (1-1-Na, QPX7728, CPM), strain ATCC BAA-1898, KPC-2, Class A
  MIC: > 128 µg/mL
[1]; ATCCBAA1899, read-out: MIC, single substance (1-1-Na, QPX7728, CPM), strain ATCC BAA-1899, KPC-2, Class A
  MIC: 64 µg/mL
[1]; ATCCBAA2343, read-out: MIC, single substance (1-1-Na, QPX7728, CPM), strain ATCC BAA-2343, KPC, Class A
  MIC: > 128 µg/mL
[1]; ATCCBAA2470, read-out: MIC, single substance (1-1-Na, QPX7728, CPM), strain ATCC BAA-2470, NDM-1, Class B
  MIC: 64 µg/mL
[1]; read-out: MIC, single substance (1-1-Na, QPX7728, CPM), strain ARLG-1127 (Urine), KPC, KPC-3, TEM, TEM-1, Class A
  MIC: > 128 µg/mL
[1]; read-out: MIC, single substance (1-1-Na, QPX7728, CPM), strain ARLG-1195, CTM-1 group, SHV, NDM, Class A, B
  MIC: > 128 µg/mL
[1]; read-out: MIC, single substance (1-1-Na, QPX7728, CPM), strain ARLG-1196, CTM-1 group, SHV, NDM, TEM, Class A, B
  MIC: 128 µg/mL
[1]; strain ARLG-1127 (Urine), KPC, KPC-3, TEM, TEM-1, Class A
  MIC, Cefepime + compound (8 ug/ml): 0.25 µg/mL
[1]; strain ARLG-1195, CTM-1 group, SHV, NDM, Class A, B
  MIC, Cefepime + compound (8 ug/ml): ≤0.125 µg/mL
[1]; strain ARLG-1196, CTM-1 group, SHV, NDM, TEM, Class A, B
  MIC, Cefepime + compound (8 ug/ml): ≤0.125 µg/mL
[1]; strain ATCC BAA-1705, KPC-2, TEM, SHV, Class A
  MIC, Cefepime + compound (8 ug/ml): <0.125 µg/mL
[1]; strain ATCC BAA-1898, KPC-2, Class A
  MIC, Cefepime + compound (8 ug/ml): <0.125 µg/mL
[1]; strain ATCC BAA-1899, KPC-2, Class A
  MIC, Cefepime + compound (8 ug/ml): ≤0.125 µg/mL
[1]; strain ATCC BAA-2343, KPC, Class A
  MIC, Cefepime + compound (8 ug/ml): 0.25 µg/mL
[1]; strain ATCC BAA-2470, NDM-1, Class B
  MIC, Cefepime + compound (8 ug/ml): ≤0.125 µg/mL
[2]; 10 mg/kg
  t½z: 115 min
  AUC(0-t): 211 µg·h/mL
  AUC(0-inf): 213 µg·h/mL
  Cmax: 146 µg/mL
  Tmax: 4.98 min
[2]; 100 mg/kg
  t½z: 178 min
  AUC(0-t): 1400 µg·h/mL
  AUC(0-inf): 1540 µg·h/mL
  Cmax: 607 µg/mL
  Tmax: 4.98 min
[3]; Acinetobacter baumannii, read-out: concentration for achieving a bacteriostatic effect where the CPM MIC is fixed at 8 μg/mL
  MIC: > 16 µg/mL
[3]; strain FDA-CDC AR-BANK#0035
  concentration for achieving a bacteriostatic effect where the CPM MIC is fixed at 8 μg/mL: >16 µg/mL
[3]; strain FDA-CDC AR-BANK#0078
  concentration for achieving a bacteriostatic effect where the CPM MIC is fixed at 8 μg/mL: >16 µg/mL
[4]; read-out: concentration for achieving a bacteriostatic effect where the CPM MIC is fixed at 8 μg/mL, strain FDA-CDC AR-BANK#0055
  MIC: 1 µg/mL
[4]; read-out: concentration for achieving a bacteriostatic effect where the CPM MIC is fixed at 8 μg/mL, strain FDA-CDC AR-BANK#0114
  MIC: 0.0312 µg/mL
[4]; read-out: concentration for achieving a bacteriostatic effect where the CPM MIC is fixed at 8 μg/mL, strain FDA-CDC AR-BANK#0370
  MIC: 1 µg/mL
[4]; read-out: concentration for achieving a bacteriostatic effect where the CPM MIC is fixed at 8 μg/mL, strain FDA-CDC AR-BANK#0371
  MIC: ≤ 0.0156 µg/mL
[4]; [7]
  restoring to cefepime antibacterial activity against cefepime-resistant Escherichia coli: significantly restore to cefepime antibacterial activity
[5]; read-out: concentration for achieving a bacteriostatic effect where the CPM MIC is fixed at 8 μg/mL, strain FDA-CDC AR-BANK#0003
  MIC: 0.125 µg/mL
[5]; read-out: concentration for achieving a bacteriostatic effect where the CPM MIC is fixed at 8 μg/mL, strain FDA-CDC AR-BANK#0076
  MIC: 0.25 µg/mL
[5]; read-out: concentration for achieving a bacteriostatic effect where the CPM MIC is fixed at 8 μg/mL, strain FDA-CDC AR-BANK#0080
  MIC: 2 µg/mL
[5]; read-out: concentration for achieving a bacteriostatic effect where the CPM MIC is fixed at 8 μg/mL, strain FDA-CDC AR-BANK#0126
  MIC: ≤ 0.0156 µg/mL
[5]; read-out: concentration for achieving a bacteriostatic effect where the CPM MIC is fixed at 8 μg/mL, strain FDA-CDC AR-BANK#0158
  MIC: 2 µg/mL
[5]; [7]
  restoring to cefepime antibacterial activity against cefepime-resistant Klebsiella pneumoniae: significantly restore to cefepime antibacterial activity
[6]; read-out: concentration for achieving a bacteriostatic effect where the CPM MIC is fixed at 8 μg/mL, strain FDA-CDC AR-BANK#0246, with CPM 8 μg/mL
  MIC: > 16 µg/mL
[6]; read-out: concentration for achieving a bacteriostatic effect where the CPM MIC is fixed at 8 μg/mL, strain FDA-CDC AR-BANK#0439, with CPM 8 μg/mL
  MIC: > 16 µg/mL
[6]; read-out: concentration for achieving a bacteriostatic effect where the CPM MIC is fixed at 8 μg/mL, strain FDA-CDC AR-BANK#0441, with CPM 8 μg/mL
  MIC: 8 µg/mL
[6]; read-out: concentration for achieving a bacteriostatic effect where the CPM MIC is fixed at 8 μg/mL, strain FDA-CDC AR-BANK#0444, with CPM 8 μg/mL
  MIC: 16 µg/mL
